According to patent US12569502B2, “Use of bile acids and derivatives thereof in preparation of GPR39 agonist” (PEKING UNIVERSITY, priority 2019, dated 2026):
Read-outs that look alike come from different tables or passages of the source.

Molecular target: T1, GPR39 receptors on m39-20 cell lines (Mus musculus, UniProt Q5U431, T447P)
T1 construct: P2A-mCherry (C); expressed in transfected cells
T1 sequence (Q5U431 1-456 T447P): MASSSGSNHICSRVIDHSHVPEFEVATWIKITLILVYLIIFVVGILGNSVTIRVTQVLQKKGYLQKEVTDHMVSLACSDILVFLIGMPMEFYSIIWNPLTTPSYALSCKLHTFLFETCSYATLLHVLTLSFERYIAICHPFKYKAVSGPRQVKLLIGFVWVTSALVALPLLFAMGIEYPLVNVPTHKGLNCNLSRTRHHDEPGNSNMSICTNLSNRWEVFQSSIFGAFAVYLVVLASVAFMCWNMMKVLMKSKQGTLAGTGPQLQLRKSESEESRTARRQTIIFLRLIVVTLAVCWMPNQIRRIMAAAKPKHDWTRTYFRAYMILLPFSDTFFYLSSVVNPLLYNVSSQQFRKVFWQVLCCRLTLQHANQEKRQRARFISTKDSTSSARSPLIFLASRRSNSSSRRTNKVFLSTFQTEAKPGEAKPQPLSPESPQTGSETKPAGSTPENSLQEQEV
Test: FLIPR calcium imaging on m39-20 cell lines stably expressing murine-derived GPR39
Format: cell-based
Details: for intracellular calcium signals in m39-20 cell lines: FIG. 1; for Bile acid + 4 μM zinc ions Efficacy / Only bile acid Efficacy: activation efficacy; for change of activation efficacy after the addition of zinc ions: Table 1, FIG. 2
From the text: Intracellular calcium imaging is a routine technique to study cell functions, the basic principle of which is to detect the concentration of the calcium ion in tissues or cells using a calcium indicator, thereby reflecting certain reactions in the tissues or cells. In the present application, the intracellular calcium released from a cell line that stably or transiently expresses GPR39 is detected using Fluo8-AM, a calcium fluorescent indicator, so as to determine the activation of the GPR39 receptor by the bile acid and derivative thereof.
HEK293T cells (purchased from ATCC) were seeded in a 6-well plate (coming Co.) at an appropriate density (about 0.5-2×10^5/well). When the cell density reached above 30%, the plasmid PLVXK-mGPR39-P2A-mCherry was transfected with Lipofectamine 3000 (Invitrogen) at a concentration of 2 μg per well. The cells were passaged 24 hours after transfection, the puromycin (gibco) was added into the medium at a concentration of 2 μg/mL for antibiotic screening of cells. After 2-4 days of continuous screening, the cells screened for puromycin resistance were trypsinized and screened by flow cytometry for monoclones with red fluorescence. And these monoclones were seeded in a 96-well plate and cultured in a medium without puromycin for around 10 days. Cell colonies with red fluorescence were sorted under a fluorescence microscope, trypsinized and then passaged and expanded in a 6-well plate. Cell lines m39-20 stably expressing murine-derived GPR39 were obtained through the above methods.
Calcium dye Fluo8-AM (ATT bioquest Co.) was dissolved in DMSO solvent to formulate a stock solution of 1 μg/μL. […] After then, the calcium dye working solution was replaced with the 4K solution (50 μL per well), and acclimated for 5 min at room temperature for the subsequent calcium imaging experiment.
Bile acids and derivatives thereof as listed in Table 1 below were dissolved in dimethyl sulfoxide (DMSO, Sigma Co.) solvent to formulate a stock solution of 50 mM, which was stored at −20° C. During calcium imaging with FLIPR, the drug was diluted with the above 4K solution into a working concentration of 400 μM, and packaged into another 96-well plate. […] The instrument parameters were set so that 50 μL of the drug solution may be added into the culture wells within 2 s. The fluorescence recording result within the first 30 seconds was used as the baseline value. The FLIPR robot arm was programmed to automatically add bile acids and derivatives thereof into the cell sample culture wells at the 31st second. 1% of DMSO solvent was used as the blank control.
After that, the calcium dye working solution was replaced with a 4K solution containing 4 μM zinc ions (50 μL per well), followed by acclimation for 5 min at room temperature.

[1] = Bile acid + 4 μM zinc ions EC50, m39-20 cells, 4 μM zinc ions
[2] = m39-20 cells, no zinc ions, read-out: Only bile acid EC50
[3] = m39-20 cells, no zinc ions, read-out: EC50 Only agonist

EC50 [3] [µM] | EC50 (read-out: EC50 Agonist + 4 μM zinc ions, m39-20 cells, 4 μM zinc ions) [µM] | EC50 (EC50 Agonist + 4 μM zinc ions, m39-20 cells, 4 μM zinc ions) [µM] | SMILES | EC50 [1] [µM] | intracellular calcium signals in m39-20 cell lines | Bile acid + 4 μM zinc ions Efficacy (m39-20 cells, 4 μM zinc ions) [%] | Only bile acid Efficacy (m39-20 cells, no zinc ions) [%] | change of activation efficacy after the addition of zinc ions (m39-20 cells) | EC50 [2] [µM] | EC50 (Only bile acid EC50, m39-20 cells, no zinc ions) [µM]
 |  |  | C[C@H](CCC(=O)NCC(=O)O)[C@H]1CC[C@H]2[C@@H]3CC[C@@H]4C[C@H](OS(=O)(=O)O)CC[C@]4(C)[C@H]3C[C@H](O)[C@]12C [GDCAS] | > 100 | varying extents of intracellular calcium signals | 58.5 ± 4.8 | 0 | obviously improved | > 200 | 
 |  |  | C[C@H](CCC(=O)O)[C@H]1CC[C@H]2[C@@H]3[C@@H](O)C[C@@H]4C[C@H](O)CC[C@]4(C)[C@H]3CC[C@]12C [UDCA, Ursodeoxycholic acid] | > 100 |  | 58.5 ± 4 | 0 |  | > 200 | 
 |  |  | C[C@H](CCC(=O)NCCS(=O)(=O)O)[C@H]1CC[C@H]2[C@@H]3CC[C@@H]4C[C@H](O)CC[C@]4(C)[C@H]3CC[C@]12C [TLCA] | 8.1 ± 2.4 | varying extents of intracellular calcium signals | 103.5 ± 1.1 | 47.8 ± 1.1 |  | 44 ± 10 | 
 |  |  | C[C@H](CCC(=O)O)[C@H]1CC[C@H]2[C@@H]3CC[C@@H]4C[C@H](O)CC[C@]4(C)[C@H]3CC[C@]12C [LCA, Lithocholic acid] | > 100 |  | 1.3 ± 1.1 | 0 |  | > 200 | 
 |  |  | C[C@H](CCC(=O)NCC(=O)O)[C@H]1CC[C@H]2[C@@H]3[C@H](O)C[C@@H]4C[C@H](OS(=O)(=O)O)CC[C@]4(C)[C@H]3CC[C@]12C [GCDCAS] | > 100 | varying extents of intracellular calcium signals | 58.6 ± 2 | 0 | obviously improved | > 200 | 
42.9 | 3.5 |  | CCCCCCCCC=CCCCCCCCC(=O)OCC(CO)OC(=O)CCCCCCCC=CCCCCCCCC (stereo not drawn) [TM-N 1324, reference compound] |  |  |  |  |  |  | 
39 |  | 1.5 | CNc1nc(NCc2ccc(NS(C)(=O)=O)cc2Cl)cc(-c2ccccn2)n1 [TG-G 1008, reference compound] |  |  |  |  |  |  | 
 |  |  | C[C@H](CCC(=O)NCCS(=O)(=O)O)[C@H]1CC[C@H]2[C@@H]3[C@H](O)C[C@@H]4C[C@H](O)CC[C@]4(C)[C@H]3C[C@H](O)[C@]12C [TCA] | > 100 | varying extents of intracellular calcium signals | 31.8 ± 3 | 0 | obviously improved |  | > 200
 |  |  | C[C@H](CCC(=O)NCC(=O)O)[C@H]1CC[C@H]2[C@@H]3CC[C@@H]4C[C@H](O)CC[C@]4(C)[C@H]3C[C@H](O)[C@]12C [GDCA] | 46 ± 10.3 | varying extents of intracellular calcium signals | 86.4 ± 6.3 | 7.7 ± 1.7 | obviously improved | > 200 | 
 |  |  | C[C@H](CCC(=O)NCCS(=O)(=O)O)[C@H]1CC[C@H]2[C@@H]3[C@H](O)C[C@@H]4C[C@H](OS(=O)(=O)O)CC[C@]4(C)[C@H]3CC[C@]12C [TCDCAS] | > 100 | varying extents of intracellular calcium signals | 39.7 ± 3.3 | 0 | obviously improved | > 200 | 
 |  |  | C[C@H](CCC(=O)NCCS(=O)(=O)O)[C@H]1CC[C@H]2[C@@H]3CC[C@@H]4C[C@H](O)CC[C@]4(C)[C@H]3C[C@H](O)[C@]12C [TDCA] | 27.6 ± 7.1 | varying extents of intracellular calcium signals | 99.3 ± 1.7 | 22.8 ± 3 | obviously improved | > 200 | 
 |  |  | C[C@H](CCC(=O)NCCS(=O)(=O)O)[C@H]1CC[C@H]2[C@@H]3[C@@H](O)C[C@@H]4C[C@H](OS(=O)(=O)O)CC[C@]4(C)[C@H]3CC[C@]12C [TUDCAS] | > 100 | varying extents of intracellular calcium signals | 31.4 ± 3.2 | 0 | obviously improved | > 200 | 
 |  |  | C[C@H](CCC(=O)NCC(=O)O)[C@H]1CC[C@H]2[C@@H]3[C@H](O)C[C@@H]4C[C@H](O)CC[C@]4(C)[C@H]3C[C@H](O)[C@]12C [GCA] | > 100 | varying extents of intracellular calcium signals | 20 ± 2.7 | 0 | obviously improved | > 200 | 
 |  |  | C[C@H](CCC(=O)O)[C@H]1CC[C@H]2[C@@H]3[C@H](O)C[C@@H]4C[C@H](O)CC[C@]4(C)[C@H]3C[C@H](O)[C@]12C [CA, Cholic acid] | 49.2 ± 3.3 |  | 99.3 ± 2.1 | 0 |  | > 200 | 
 |  |  | C[C@H](CCC(=O)NCC(=O)O)[C@H]1CC[C@H]2[C@@H]3[C@@H](O)C[C@@H]4C[C@H](O)CC[C@]4(C)[C@H]3CC[C@]12C [GUDCA] | > 100 | varying extents of intracellular calcium signals | 35.3 ± 6.8 | 0 | obviously improved | > 200 | 
 |  |  | C[C@H](CCC(=O)NCC(=O)O)[C@H]1CC[C@H]2[C@@H]3[C@H](O)C[C@@H]4C[C@H](O)CC[C@]4(C)[C@H]3CC[C@]12C [GCDCA] | 80.6 ± 3.6 | varying extents of intracellular calcium signals | 91.2 ± 4.4 | 16.5 ± 2.4 | obviously improved | > 200 | 
 |  |  | C[C@H](CCC(=O)NCCS(=O)(=O)O)[C@H]1CC[C@H]2[C@@H]3CC[C@@H]4C[C@H](OS(=O)(=O)O)CC[C@]4(C)[C@H]3C[C@H](O)[C@]12C [TDCAS] | > 100 | varying extents of intracellular calcium signals | 60.1 ± 5.5 | 0 | obviously improved | > 200 | 
 |  |  | C[C@H](CCC(=O)O)[C@H]1CC[C@H]2[C@@H]3CC[C@@H]4C[C@H](OS(=O)(=O)O)CC[C@]4(C)[C@H]3C[C@H](O)[C@]12C [DCAS] | 37.8 ± 1 | varying extents of intracellular calcium signals | 81.9 ± 2.2 | 0 | obviously improved | > 200 | 
 |  |  | C[C@H](CCC(=O)O)[C@H]1CC[C@H]2[C@@H]3[C@@H](O)C[C@@H]4C[C@H](OS(=O)(=O)O)CC[C@]4(C)[C@H]3CC[C@]12C [UDCAS] | 68.6 ± 16.3 | varying extents of intracellular calcium signals | 84.7 ± 2.4 | 0 | obviously improved | > 200 | 
